Experimental data: BindingDB's records for doi:10.1021/jm0001626 (Signal Pharmaceuticals, 2000)

Target: Transcription factor Jun (Homo sapiens, UniProt P05412)
Assay: Concentration required to inhibit activator protein-1(AP-1) mediated transcriptional activation in human Jurkat T-cells

Chain of Transcription factor Jun (P05412 whole entry): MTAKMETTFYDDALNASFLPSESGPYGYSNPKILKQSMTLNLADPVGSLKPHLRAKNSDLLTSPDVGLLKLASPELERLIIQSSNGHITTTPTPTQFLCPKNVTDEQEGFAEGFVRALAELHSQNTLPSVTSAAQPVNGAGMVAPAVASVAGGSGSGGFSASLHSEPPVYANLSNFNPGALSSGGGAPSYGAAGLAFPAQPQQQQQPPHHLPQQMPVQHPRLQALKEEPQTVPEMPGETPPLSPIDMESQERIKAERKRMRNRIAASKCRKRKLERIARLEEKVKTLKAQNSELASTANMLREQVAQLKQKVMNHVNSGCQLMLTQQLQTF

IC50 [µM] | SMILES
> 10 | O=C(Nc1cc(C(F)(F)F)cc(C(F)(F)F)c1)c1cnc(C(F)(F)F)nc1C(F)(F)F [2,4-Bis-trifluoromethyl-pyrimidine-5-carboxylic acid (3,5-bis-trifluoromethyl-phenyl)-amide]
> 10 | O=C(Nc1cc(C(F)(F)F)cc(C(F)(F)F)c1)c1cc(Cl)nc(Cl)n1 [2,6-Dichloro-pyrimidine-4-carboxylic acid (3,5-bis-trifluoromethyl-phenyl)-amide]
0.3 | CCc1nc(Cl)ncc1C(=O)Nc1cc(C(F)(F)F)cc(C(F)(F)F)c1 [2-Chloro-4-ethyl-pyrimidine-5-carboxylic acid (3,5-bis-trifluoromethyl-phenyl)-amide]
0.6 | O=C(Nc1cc(C(F)(F)F)cc(C(F)(F)F)c1)c1cnc(Cl)nc1C(F)(F)C(F)(F)F [2-Chloro-4-pentafluoroethyl-pyrimidine-5-carboxylic acid (3,5-bis-trifluoromethyl-phenyl)-amide]
0.5 | CCCc1nc(Cl)ncc1C(=O)Nc1cc(C(F)(F)F)cc(C(F)(F)F)c1 [2-Chloro-4-propyl-pyrimidine-5-carboxylic acid (3,5-bis-trifluoromethyl-phenyl)-amide]
8 | O=C(Nc1cc(C(F)(F)F)cc(C(F)(F)F)c1)c1cnc(Cl)nc1-c1cccs1 [2-Chloro-4-thiophen-2-yl-pyrimidine-5-carboxylic acid (3,5-bis-trifluoromethyl-phenyl)-amide]
> 10 | Cc1cc(C(=O)Nc2cc(C(F)(F)F)cc(C(F)(F)F)c2)nc(Cl)n1 [2-Chloro-6-methyl-pyrimidine-4-carboxylic acid (3,5-bis-trifluoromethyl-phenyl)-amide]
> 10 | O=C(Nc1cc(C(F)(F)F)cc(C(F)(F)F)c1)c1cc(C(F)(F)F)nc(Cl)n1 [2-Chloro-6-trifluoromethyl-pyrimidine-4-carboxylic acid (3,5-bis-trifluoromethyl-phenyl)-amide]
0.3 | O=C(Nc1cc(C(F)(F)F)cc(C(F)(F)F)c1)c1cnc(Cl)nc1 [2-Chloro-pyrimidine-5-carboxylic acid (3,5-bis-trifluoromethyl-phenyl)-amide]
> 10 | N#Cc1ncc(C(=O)Nc2cc(C(F)(F)F)cc(C(F)(F)F)c2)c(C(F)(F)F)n1 [2-Cyano-4-trifluoromethyl-pyrimidine-5-carboxylic acid (3,5-bis-trifluoromethyl-phenyl)-amide]
> 10 | Cc1ncc(C(=O)Nc2cc(C(F)(F)F)cc(C(F)(F)F)c2)c(C(F)(F)F)n1 [2-Methyl-4-trifluoromethyl-pyrimidine-5-carboxylic acid (3,5-bis-trifluoromethyl-phenyl)-amide]
> 10 | O=C(Nc1cc(C(F)(F)F)cc(C(F)(F)F)c1)c1cnc(-c2ccccc2)nc1 [2-Phenyl-pyrimidine-5-carboxylic acid (3,5-bis-trifluoromethyl-phenyl)-amide]
> 10 | O=C(Nc1cc(C(F)(F)F)cc(C(F)(F)F)c1)c1cnc(C(F)(F)F)nc1 [2-Trifluoromethyl-pyrimidine-5-carboxylic acid (3,5-bis-trifluoromethyl-phenyl)-amide]
> 10 | O=C(Nc1cc(C(F)(F)F)cc(C(F)(F)F)c1)c1cnc(C(F)(F)F)nc1Cl [4-Chloro-2-trifluoromethyl-pyrimidine-5-carboxylic acid (3,5-bis-trifluoromethyl-phenyl)-amide]
> 10 | Cc1nc(C(F)(F)F)ncc1C(=O)Nc1cc(C(F)(F)F)cc(C(F)(F)F)c1 [4-Methyl-2-trifluoromethyl-pyrimidine-5-carboxylic acid (3,5-bis-trifluoromethyl-phenyl)-amide]
> 30 | O=C(Nc1cc(C(F)(F)F)cc(C(F)(F)F)c1)c1ccc(Cl)cc1C(F)(F)F [N-(3,5-Bis-trifluoromethyl-phenyl)-4-chloro-2-trifluoromethyl-benzamide]
